The record followed here is patent publication US12486253B2, “Therapeutics for the degradation of mutant BRAF” (C4 THERAPEUTICS, INC., priority 2021, dated 2025).

Like-named read-outs stand apart in the source and are kept apart here.

This test concerns the target BRAF V600E (Homo sapiens, UniProt P15056, V600E). Nature of the test: HiBiT cellular BRAF^V600E degradation assay. The test is classed as cell-based. Conditions: for DC50: concentration at which 50% of total cellular BRAF^V600E is degraded; for Emax: read-out: HiBit 24 h Emax. A general note: The HiBiT peptide binds its large partner to form an active luciferase.
Setting [1] is: A375.10 cells, 24 h, residual protein remaining in the cell.

Sequence of BRAF V600E (P15056 whole entry V600E): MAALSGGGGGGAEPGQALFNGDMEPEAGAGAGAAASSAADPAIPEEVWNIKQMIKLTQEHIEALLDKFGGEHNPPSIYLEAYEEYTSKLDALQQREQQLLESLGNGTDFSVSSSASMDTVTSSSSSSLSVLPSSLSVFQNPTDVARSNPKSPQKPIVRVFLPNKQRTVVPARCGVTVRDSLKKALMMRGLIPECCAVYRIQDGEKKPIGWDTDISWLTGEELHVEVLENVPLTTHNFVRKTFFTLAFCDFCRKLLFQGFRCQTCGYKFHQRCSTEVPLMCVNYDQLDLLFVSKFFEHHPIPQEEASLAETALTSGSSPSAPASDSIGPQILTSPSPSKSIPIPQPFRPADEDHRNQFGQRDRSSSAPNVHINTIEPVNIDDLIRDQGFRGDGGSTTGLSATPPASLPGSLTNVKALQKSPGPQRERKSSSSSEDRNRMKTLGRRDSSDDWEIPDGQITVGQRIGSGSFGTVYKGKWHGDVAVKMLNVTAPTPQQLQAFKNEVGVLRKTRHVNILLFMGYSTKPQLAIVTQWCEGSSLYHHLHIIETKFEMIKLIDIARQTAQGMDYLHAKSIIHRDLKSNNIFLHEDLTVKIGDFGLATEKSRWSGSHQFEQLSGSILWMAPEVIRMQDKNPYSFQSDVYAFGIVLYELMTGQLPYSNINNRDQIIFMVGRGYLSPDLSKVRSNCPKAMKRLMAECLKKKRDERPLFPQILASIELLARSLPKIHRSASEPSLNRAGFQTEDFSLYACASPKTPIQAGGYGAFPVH

One may read the DC50 as the concentration at which degradation of the target reaches its halfway point. Usually Emax stands for the size of the effect at its maximum, as opposed to the concentration needed. As to `CCN(C)S(=O)(=O)Nc1ccc(F)c(Oc2ccc3ncn(CC(C)CC4CCN(C(=O)CN5CCC(c6ccc(NC7CCC(=O)NC7=O)cc6F)CC5)CC4)c(=O)c3c2)c1C#N` (centres unmarked) [Example 14, 6-[2-cyano-3-[[ethyl(methyl)sulfamoyl]amino]-6-fluorophenoxy]-3-[3-[1-[2-[4-[4-[(2,6-dioxopiperidin-3-yl)amino]-2-fluorophenyl]piperidin-1-yl]acetyl]piperidin-4-yl]-2-methylpropyl]-4-oxoquinazoline], the Emax was determined as 8.11%. For the setting “A375.10 cells, 24 h”, this molecule yielded a 50% degradation concentration (DC50) of 12.5 nM.

As for `N#Cc1c(NS(=O)(=O)N2CCCC2)ccc(F)c1Oc1ccc2ncn(-c3cnc(N4CCN(C(=O)CN5CCC(c6ccc(N[C@H]7CCC(=O)NC7=O)cc6F)CC5)CC4)nc3)c(=O)c2c1` [Example 107, N-[2-cyano-3-[3-[2-[4-[2-[4-[4-[[(3S)-2,6-dioxopiperidin-3-yl]amino]-2-fluorophenyl]piperidin-1-yl]acetyl]piperazin-1-yl]pyrimidin-5-yl]-4-oxoquinazolin-6-yl]oxy-4-fluorophenyl]pyrrolidine-1-sulfonamide], the maximal effect (Emax) is 9.8%. The DC50 (A375.10 cells, 24 h) came out at 12.9 nM.

Where the note is “A375.10 cells, 24 h”, `CCN(C)S(=O)(=O)Nc1ccc(F)c(Oc2ccc3ncn(C4CCC5(CC4)CCN(C(=O)CC4(O)CCN(c6cc7c(cc6F)c(N6CCC(=O)NC6=O)nn7C)CC4)CC5)c(=O)c3c2)c1C#N` [Example 158, 9-[6-[2-cyano-3-[[ethyl(methyl)sulfamoyl]amino]-6-fluorophenoxy]-4-oxoquinazolin-3-yl]-3-[2-[1-[3-(2,4-dioxo-1,3-diazinan-1-yl)-5-fluoro-1-methylindazol-6-yl]-4-hydroxypiperidin-4-yl]acetyl]-3-azaspiro[5.5]undecane] returned a DC50 of 25 nM. Under setting [1], the maximal response (Emax) amounted to 30%.

`CCN(C)S(=O)(=O)Nc1ccc(F)c(Oc2ccc3ncn(-c4ccc(N5CCN(C(=O)CN6CCC(c7c(F)cc(NC8CCC(=O)NC8=O)cc7OC)CC6)CC5)nc4)c(=O)c3c2)c1C#N` (centres unmarked) [Example 87, 6-[2-cyano-3-[[ethyl(methyl)sulfamoyl]amino]-6-fluorophenoxy]-3-[6-[4-[2-[4-[4-[(2,6-dioxopiperidin-3-yl)amino]-2-fluoro-6-methoxyphenyl]piperidin-1-yl]acetyl]piperazin-1-yl]pyridin-3-yl]-4-oxoquinazoline] returned a DC50 (A375.10 cells, 24 h) of 30.3 nM. The Emax under setting [1] stood at 10.1%.

`Cn1nc(N2CCC(=O)NC2=O)c2cc(F)c(N3CCC(O)(CC(=O)N4CCC5(CC4)C[C@@H](n4cnc6ccc(Oc7c(F)ccc(NS(=O)(=O)N8CC9CC9C8)c7C#N)cc6c4=O)CO5)CC3)cc21` (stereo partly drawn) [Example 194, N-[2-cyano-3-[3-[(3R)-8-[2-[1-[3-(2,4-dioxo-1,3-diazinan-1-yl)-5-fluoro-1-methylindazol-6-yl]-4-hydroxypiperidin-4-yl]acetyl]-1-oxa-8-azaspiro[4.5]decan-3-yl]-4-oxoquinazolin-6-yl]oxy-4-fluorophenyl]-3-azabicyclo[3.1.0]hexane-3-sulfonamide] yielded a DC50 (A375.10 cells, 24 h) of 42.8 nM. Moreover, under setting [1], the Emax was found to be 26.2%.

`CCN(C)S(=O)(=O)Nc1ccc(F)c(Oc2ccc3ncn(-c4cnc(N5CCN(C(=O)CN6CCC(c7ccc(N[C@@H]8CCC(=O)NC8=O)cc7F)CC6)CC5)nc4)c(=O)c3c2OC)c1C#N` [Example 99, 6-[2-cyano-3-[[ethyl(methyl)sulfamoyl]amino]-6-fluorophenoxy]-3-[2-[4-[2-[4-[4-[[(3R)-2,6-dioxopiperidin-3-yl]amino]-2-fluorophenyl]piperidin-1-yl]acetyl]piperazin-1-yl]pyrimidin-5-yl]-5-methoxy-4-oxoquinazoline] gave a DC50 (A375.10 cells, 24 h) of 34.2 nM. Also, the maximal response (Emax) under setting [1] came out at 11.4%.

Where the note is “A375.10 cells, 24 h”, `CCN(C)S(=O)(=O)Nc1ccc(F)c(Nc2ccc3ncn([C@H]4COC5(CCN(C(=O)CC6(O)CCN(c7cc8c(cc7F)c(N7CCC(=O)NC7=O)nn8C)CC6)CC5)C4)c(=O)c3c2F)c1C#N` (single isomer, unassigned) [Example 184] returned a half-maximal degradation concentration (DC50) of 8.55 nM. In addition, the maximum response (Emax) under setting [1] amounted to 18%.

Turning to `CCN(C)S(=O)(=O)Nc1ccc(F)c(Oc2ccc3ncn([C@@H]4CCC5(CCN(C(=O)CN6CCC(c7ccc(NC8CCC(=O)NC8=O)cc7F)CC6)CC5)C4)c(=O)c3c2)c1C#N` (single isomer, unassigned) [Example 41], it took 16.1 nM to reach half-maximal degradation (A375.10 cells, 24 h) (DC50). Also, the Emax under setting [1] worked out at 9.27%.

For the molecule `CCN(C)S(=O)(=O)Nc1ccc(F)c(Oc2ccc3ncc(C4COC5(CCN(C(=O)CN6CCC(c7ccc(NC8CCC(=O)NC8=O)cc7F)CC6)CC5)C4)cc3c2)c1C#N` (centres unmarked) [Example 218, 3-[6-[2-cyano-3-[[ethyl(methyl)sulfamoyl]amino]-6-fluorophenoxy]quinolin-3-yl]-8-[2-[4-[4-[(2,6-dioxopiperidin-3-yl)amino]-2-fluorophenyl]piperidin-1-yl]acetyl]-1-oxa-8-azaspiro[4.5]decane], the DC50 (A375.10 cells, 24 h) was 11.3 nM. Besides, the maximal response (Emax) under setting [1] amounted to 6.96%.

Consider `CO[C@@H]1CCN(S(=O)(=O)Nc2ccc(F)c(Oc3ccc4ncn(-c5cnc(N6CCN(C(=O)CN7CCC(c8ccc(N[C@@H]9CCC(=O)NC9=O)cc8F)CC7)CC6)nc5)c(=O)c4c3)c2C#N)C1` [Example 97, (3R)—N-[2-cyano-3-[3-[2-[4-[2-[4-[4-[[(3R)-2,6-dioxopiperidin-3-yl]amino]-2-fluorophenyl]piperidin-1-yl]acetyl]piperazin-1-yl]pyrimidin-5-yl]-4-oxoquinazolin-6-yl]oxy-4-fluorophenyl]-3-methoxypyrrolidine-1-sulfonamide], for which the 50% degradation concentration (DC50) (A375.10 cells, 24 h) was 8.41 nM. Moreover, the maximum response (Emax) under setting [1] is 10.6%.

Molecule `CO[C@H]1CCN(S(=O)(=O)Nc2ccc(F)c(Oc3ccc4ncn([C@H]5COC6(CCN(C(=O)CC7(O)CCN(c8cc9c(cc8F)c(N8CCC(=O)NC8=O)nn9C)CC7)CC6)C5)c(=O)c4c3)c2C#N)C1` [Example 176, (3S)—N-[2-cyano-3-[3-[(3R)-8-[2-[1-[3-(2,4-dioxo-1,3-diazinan-1-yl)-5-fluoro-1-methylindazol-6-yl]-4-hydroxypiperidin-4-yl]acetyl]-1-oxa-8-azaspiro[4.5]decan-3-yl]-4-oxoquinazolin-6-yl]oxy-4-fluorophenyl]-3-methoxypyrrolidine-1-sulfonamide] returned a DC50 (A375.10 cells, 24 h) of 20.5 nM. Moreover, under setting [1], the Emax was found to be 24.8%.

Turning to `CCN(C)S(=O)(=O)Nc1ccc(F)c(Oc2ccc3ncn(C4COC5(CCN(C(=O)CC6(O)CCN(c7cc8c(cc7F)c(N7CCC(=O)NC7=O)nn8C)CC6)CC5)C4)c(=O)c3c2N(C)C)c1C#N` (centres unmarked) [Example 179, 3-[6-[2-cyano-3-[[ethyl(methyl)sulfamoyl]amino]-6-fluorophenoxy]-5-(dimethylamino)-4-oxoquinazolin-3-yl]-8-[2-[1-[3-(2,4-dioxo-1,3-diazinan-1-yl)-5-fluoro-1-methylindazol-6-yl]-4-hydroxypiperidin-4-yl]acetyl]-1-oxa-8-azaspiro[4.5]decane], the DC50 (A375.10 cells, 24 h) amounted to 27.8 nM. For the same molecule, under setting [1], the maximum response (Emax) amounted to 19.3%.

Take `CN(CCF)S(=O)(=O)Nc1ccc(F)c(Oc2ccc3ncn(-c4cnc(N5CCN(C(=O)CN6CCC(c7ccc(N[C@@H]8CCC(=O)NC8=O)cc7F)CC6)CC5)nc4)c(=O)c3c2)c1C#N` [Example 120, 6-[2-cyano-6-fluoro-3-[[2-fluoroethyl(methyl)sulfamoyl]amino]phenoxy]-3-[2-[4-[2-[4-[4-[[(3R)-2,6-dioxopiperidin-3-yl]amino]-2-fluorophenyl]piperidin-1-yl]acetyl]piperazin-1-yl]pyrimidin-5-yl]-4-oxoquinazoline]: it took 13.8 nM to reach half-maximal degradation (A375.10 cells, 24 h) (DC50). The Emax under setting [1] was 11.6%.
